{"source": "patent US10988774B2", "about": "“System for site-specific modification of ALS gene using CRISPR-Cas9 system for production of herbicide-resistant rice and use of same” (Institute of Crop Sciences, Chinese Academy of Agricultural …, priority 2015, dated 2021)", "key": {"wild-type rice": {"tested_on": "wild-type rice", "experiment": "Resistance to herbicide Bispyribac-sodium, spray test, wild-type rice", "format": "in vivo, Nipponbare rice", "conditions": "spray 100 μM, 36 days after spraying", "experimental": "(§1) The wild-type rice, and the T0 site-specifically modified rice of the Cas9-arm donor group with successful homologous recombination at the codons of both the 548th and 627th amino acids of ALS as obtained in step I were sprayed with Bispyribac-sodium in a concentration of 100 μM, and 30-50 days thereafter, the growth states of the plants were observed."}, "[1]": {"tested_on": "T0 site-specifically modified rice of the Cas9-arm donor group (ALS W548L, S627I)", "experiment": "Resistance to herbicide Bispyribac-sodium, spray test, ALS site-specifically modified rice", "format": "in vivo, Nipponbare rice", "conditions": "homologous recombinant rice, ALS W548L and S627I; spray 100 μM; 36 days after spraying", "experimental": "as §1"}}}
{"molecule": "COc1cc(OC)nc(Oc2cccc(Oc3nc(OC)cc(OC)n3)c2C(=O)O)n1", "note": "[Bispyribac-sodium]", "values": [{"measurement": "growth state of the plants after spraying", "setting": "wild-type rice", "result": "withered"}, {"measurement": "growth state of the plants after spraying", "setting": "[1]", "result": "normal growth"}]}
